From patent publication US7538193B2, “NO-modified hemoglobins and uses therefor” (Duke University, priority 1995, dated 2009)

How the values were obtained:
Sprague-Dawley rat = assay: Mean arterial blood pressure in anesthetized rats after femoral vein bolus (Examples 5, 6); assay type: in vivo; details: for blood pressure response: bolus into femoral vein, 2-200 nmol/kg
Description: Rats were anesthetized by intraperitoneal injection of pentobarbital and the femoral arteries and veins accessed by local cut down. The artery was then cannulated and the blood pressure monitored continuously using a Viggo Spectramed pressure transducer attached to a Gould recorder. An IBM PC (DATA Q Codas) was used for data acquisition.

[1] = Decomposition and stability of SNO-Hb forms; assay type: physicochemical; details: as synthesized in Example 27
Procedure: Hbs in PBS (0.5 mM EDTA, pH 7.4) were incubated in air (oxy) or in a tonometer previously evacuated of O2 (deoxy). SNO-Hb(FeII)O2 decomposition was determined by the method of Saville (Saville, B., Analyst 83:670-672 (1958)). Spontaneous decomposition of SNO-Hb(FeII) was followed spectrophotometrically by formation of Hb(FeII)NO. Transnitrosation reactions with glutathione were performed by addition of 100-fold excess glutathione over protein (50 μM), immediate processing of the reaction mixture under anaerobic conditions followed by rapid TCA precipitation, and analysis of RSNO in the supernatant. Rates of NO group transfer were too rapid to measure accurately by the standard methods used in this study.

[2] = Transnitrosation between SNO-Hb and glutathione; assay type: biochemical; details: SNO-Hb 100 μM, glutathione 10 mM
Description: Data are presented as the amount of GSNO formed relative to the starting SNO-Hb concentration.
Thiol/SNO-Hb exchange, forming GSNO, was verified chemically (Stamler, J. S., et al., Proc. Natl. Acad. Sci. USA, 89:444-448 (1992)) following trichloroacetic acid precipitation (n=5).

rabbit aortic ring = assay: Vessel ring bioassay of SNO-Hb preparations (Examples 4, 13); assay type: cell-based; details: for effect of added glutathione on the dose-response: glutathione 100 ∥M in bioassay chambers (FIG. 4B); for vasoactivity in vascular ring bioassay: no added thiol (FIG. 4A)
Procedure: Details of the vessel ring bioassay have been published (Stamler, J. S., et al., Proc. Natl. Acad. Sci. USA 89:444-448 (1992)). SNO-Hb(FeII)O2 preparations were synthesized with 10-fold excess S-nitrosocysteine (CYSNO) over Hb(FeII)O2 protein (2% borate, 0.5 mM EDTA, ˜15 min incubation), after which desalting was performed across Sephadex G-25 columns. CYSNO was synthesized in 0.5 N HCl, 0.5 mM EDTA and then neutralized (1:1) in 1 M phosphate buffer containing 0.5 mM EDTA. […] The latter was synthesized by treatment of Hb(FeII)O2 with excess ferricyanide, followed by desalting across G-25 columns. SNO-Hb concentrations were verified spectroscopically and the S-nitrosothiol content was determined by the method of Saville (Stamler, J. S., et al., Proc. Natl. Acad. Sci USA 89:444-448 (1992)). The S—NO/tetramer stoichiometry for both SNO-Hb preparations was ˜2. Oxidation of the heme was undetectable by uv-spectrophotometric methods.
The aortic ring bioassay was performed as described in Example 4. The product of the reaction in which a ratio of 100:1 CYSNO/Hb tetramer was used, contains 2 SNOs as well as NO attached to the heme.

cGMP in platelets = assay: cGMP radioimmunoassay in platelet rich plasma; assay type: cell-based; details: 1, 10 and 100 μM; 5 min incubation
Procedure: Platelet rich plasma (PRP) was incubated with either hemoglobin, SNO-oxy Hb, or SNO-metHb for 5 min, after which the assay was terminated by the addition of 0.5 ml of ice cold trichloroacetic acid to 10%. Ether extractions of the supernatant were performed to remove trichloroacetic acid, and acetylation of samples with acetic anhydride was used to increase the sensitivity of the assay. Measurements of cyclic GMP were performed by radioimmunoassay (Stamler, J. et al., Circ. Res. 65:789-795 (1989)).

platelets = assay: ADP-induced aggregation of platelet-rich plasma; assay type: cell-based, human; details: 5 μM ADP
Procedure: Venous blood, anticoagulated with […] sodium citrate, was obtained from volunteers who had not consumed acetylsalicylic acid or any other platelet-active agent for at least 10 days. Platelet-rich plasma was prepared by centrifugation at 150×g for 10 minutes at 25° C. and was used within 2 hours of collection. Platelet counts were determined with a Coulter counter (model ZM) to be 1.5 to 3×10^8/ml.
Aliquots (0.3 ml) of platelets were incubated at 37° C. and stirred at 1000 rpm in a PAP-4 aggregometer (Biodata, Hatsboro, Pa.). Hemoglobins were preincubated with platelets for 10 min and aggregations were induced with 5 μM ADP. Aggregations were quantified by measuring the maximal rate and extent of change of light transmittance and are expressed as a normalized value relative to control aggregations performed in the absence of hemoglobin.

[3] = Endogenous SNO-Hb and Hb(FeII)NO in rat blood by photolysis-chemiluminescence; assay type: in vivo; details: 45 minutes after infusion of 50 mg/kg
Description: A highly sensitive photolysis-chemiluminescence methodology was employed, which had been used for measuring RSNOs (S-nitrosothiols) in biological systems (Gaston, B., et al., Proc. Natl. Acad. Sci. USA 90:10957-10961 (1993); Stamler, J. S., et al., Proc. Natl. Acad. Sci USA 89:7674-7677 (1992)). The method involves photolytic liberation of NO from the thiol, which is then detected in a chemiluminesence spectrometer by reaction with ozone. […]
Blood was obtained from the left ventricle (arterial) and jugular vein (venous) of anesthetized Sprague-Dawley rats. […] In 24 rats, Hb samples were divided in two aliquots which were then treated or not treated with 10-fold excess HgCl2 over protein concentration as measured by the method of Bradford. […] Under these conditions, any nitrite present was converted to S-nitrosoglutathione, which was then measured by photolysis-chemiluminescence (detection limit ˜1 nM). SNO-Hb was present in all arterial samples, and levels determined by this method (286±33 nM) were virtually identical to and not statistically different from those shown in Table 2. […]
A highly sensitive photolysis-chemiluminescence methodology was employed. […] The method involves photolytic liberation of NO from the thiol, which is then detected in a chemiluminesence spectrometer by reaction with ozone. […]

[4] = test system: rat brain (caudatoputamen nucleus); assay: Brain blood flow in rats by H2 clearance (Example 12); assay type: in vivo; details: Example 12, FIG. 10
Procedure: SNO-Hb(FeII)O2, having a SNO/Hb ratio of 2, was prepared (from HbA0) by reaction with S-nitrosothiol. Rats breathing 21% O2 were injected (time 0) with Hbs prepared from HbA0 as indicated in FIG. 10 (open circles, SNO-Hb (100 nmol/kg); filled circles, SNO-Hb (1000 nmol/kg); filled squares, unmodified Hb (1000 nmol/kg)). Three rats were used per experiment. Blood flow was measured in brain using the H2 clearance method; microelectrodes were placed in the brain stereotactically. […] NO group release is promoted by local tissue hypoxia.

Row | Molecule | time for blood pressure to normalize after hypotensive response (Sprague-Dawley rat) [min] | mean arterial pressure, post (Sprague-Dawley rat; after 200 nmol/kg (highest dose)) [mm Hg] | mean arterial pressure, pre (Sprague-Dawley rat; before 200 nmol/kg infusion) [mm Hg] | blood pressure response (Sprague-Dawley rat) | stability of the isolated preparation [1] | rate of NO group transfer to glutathione [2] | effect of added glutathione on the dose-response (rabbit aortic ring) | vasoactivity in vascular ring bioassay (rabbit aortic ring) | concentration of cGMP measured (cGMP in platelets) | concentrations at which platelet aggregation is inhibited (platelets; preincubated 10 min) [µM] | increase in blood pressure (Sprague-Dawley rat; 50 mg/kg) | depletion of SNO-Hb [3] [%] | depletion of total Hb-NO [3] [%] | duration of effects on blood flow in rat brain [4] | inhibition of platelet aggregation (platelets; 10 nM to 100 μM preincubated 10 min)
1 | SNO-Hb(FeIII): S-nitroso-methemoglobin, S-nitrosylated methemoglobin | 10 | 74±6 | 108±4 | hypotensive responses | inherently unstable | more rapid | potentiates the dose-response | vasodilator | less than that of native Hb | ≥ 1 | – | – | – | – | –
2 | CNC(=N)NCCC[C@H](N)C(=O)O [L-NMMA, N^ω-monomethyl-L-arginine] | – | – | – | – | – | – | – | – | – | – | about 20 mm Hg | 82 | 50±18 | – | –
3 | SNO-Hb(FeII)O2: S-nitroso-oxyhemoglobin made from oxyHb with excess S-nitrosocysteine | – | – | – | did not exhibit hypertensive effects | quite stable | – | potentiates the dose-response | modest NO-like activity | – | – | – | – | – | over 20 minutes | some inhibition of platelet aggregation at the higher concentrations tested
